Assay results reported in paper PMC9677951 (Journal of medicinal chemistry, 2020).
Several values for one entry are separate records, joined by “and”; a condition that tells them apart may be missing. Equal entries are not always repeated. Entries after “also recorded” stand apart in the source; their conditions may differ. Where two headings read alike, the source gives them in different places.

What was measured:
Kunming mice = assay: Acute toxicity study in Kunming mice; type: in vivo; conditions: single oral dose 2000 mg/kg
[1] = system: WT virus and NNRTI-resistant HIV-1 strains; assay: Broad-spectrum anti-HIV-1 activity against WT and NNRTI-resistant strains; type: cell-based; conditions: Human immunodeficiency virus 1, read-out: EC50 range, broad-spectrum activity
HIV-1 F227L+V106A [2] = conditions: read-out: EC50 F227L+V106A; previously reported; ref [9]-[13]; cited from earlier work
WT HIV-1 (IIIB) [3] = conditions: read-out: EC50 WT; previously reported; ref [9]-[13]; cited from earlier work
HIV-1 E138K [4] = conditions: read-out: EC50 E138K; previously reported; ref [9]-[13]; cited from earlier work
[5] = system: HIV-1 strain RES056 (K103N+Y181C); conditions: read-out: EC50 RES056, previously reported, ref [9]-[13], cited from earlier work
HIV-1 K103N = conditions: read-out: EC50 K103N; previously reported; ref [9]-[13]; cited from earlier work
WT HIV-1 (IIIB) [6] = conditions: read-out: EC50 IIIB, MT-4 cells, MTT method
[7] = system: HIV-1 strain RES056 (K103N+Y181C); conditions: read-out: EC50 RES056, MT-4 cells, MTT method
HIV-1 E138K [8] = assay: Anti-HIV-1 activity against E138K mutant in MT-4 cells, MTT method; type: cell-based; conditions: Human immunodeficiency virus 1, MT4, read-out: EC50 E138K
HIV-1 Y181C = assay: Anti-HIV-1 activity against Y181C mutant in MT-4 cells, MTT method; type: cell-based; conditions: Human immunodeficiency virus 1, MT4, read-out: EC50 Y181C
HIV-1 F227L+V106A [9] = assay: Anti-HIV-1 activity against F227L+V106A mutant in MT-4 cells, MTT method; type: cell-based; conditions: Human immunodeficiency virus 1, MT4, read-out: EC50 F227L+V106A
WT HIV-1 (IIIB) [10] = assay: microbe, parasite or virus in culture; conditions: Human immunodeficiency virus 1, IIIB, MT4, read-out: EC50 IIIB
HIV-1 Y188L = assay: Anti-HIV-1 activity against Y188L mutant in MT-4 cells, MTT method; type: cell-based; conditions: Human immunodeficiency virus 1, MT4, read-out: EC50 Y188L

SMILES	EC50 (HIV-1 F227L+V106A [2]) [nM]	EC50 (WT HIV-1 (IIIB) [3]) [nM]	EC50 (HIV-1 E138K [4]) [nM]	EC50 (HIV-1 K103N) [nM]	EC50 [7] [nM]	EC50 [5] [nM]	further results
Cc1cc(/C=C/C#N)cc(C)c1Oc1nc(Nc2ccc(C#N)c(F)c2)nc2ccsc12 [Compound 24b, (E)-4-((4-(4-(2-cyanovinyl)-2,6-dimethylphenoxy)thieno[3,2-d]pyrimidin-2-yl)amino)-2-fluorobenzonitrile]	–	–	–	–	–	–	Acute toxicity: behaviors and body weight vs control group (Kunming mice): no abnormal behaviors or significant changes of body weight; Acute toxicity: mortality or poisoning symptoms (Kunming mice; following 7 days, 2000 mg/kg): no mortality or poisoning symptoms; also recorded: no acute toxicity; EC50 [1]: 3.6 to 21.5 nM
Cc1cc(C#N)cc(C)c1Oc1nc(NC2CCN(Cc3ccc(S(N)(=O)=O)cc3)CC2)nc2ccsc12 [Compound K-5a2]	4.2 ± 1.2	1.4 ± 0.4	2.9	2.9	–	–	EC50 ([5]; listed as 3): 30.6 nM and 31 nM
O=C1Nc2ccc(Cl)cc2[C@@](C#CC2CC2)(C(F)(F)F)O1 [EFV, efavirenz]	–	–	–	–	260 ± 47.6	–	EC50 (WT HIV-1 (IIIB) [6]): 2.49 ± 0.547 nM
Cc1cc(C#N)cc(C)c1Oc1nc(Nc2ccc(C#N)cc2)nc(N)c1Br [ETR, Etravirine]	29 ± 7.7	4.1 ± 0.1	14 ± 2.2	2.4 ± 0.6	32.2 ± 12.2	17 ± 1.8	EC50 (HIV-1 E138K [8]): 9.76 ± 6.9 nM; EC50 (HIV-1 Y181C): 14.5 ± 8.22 nM; EC50 (HIV-1 F227L+V106A [9]): 19.7 ± 7.3 nM; EC50 (WT HIV-1 (IIIB) [10]): 2.55 ± 0.37 nM; EC50 (HIV-1 Y188L): 20.4 ± 8.64 nM
Cc1cc(/C=C/C#N)cc(C)c1Nc1ccnc(Nc2ccc(C#N)cc2)n1 [RPV, rilpivirine]	–	1 ± 0.3	–	–	–	11 ± 1.9	–
